Measurements reported in PubChem BioAssay AID248 (DTP/NCI, 2004).
“And” between values parts separate entries of the source, which are not always exact repeats. Equal entries are not always repeated. Toxic doses and inconclusive results are not listed.

Tested on: L1210 leukemia ip in BDF1 mice, survival T/C
Assay: NCI In Vivo Anticancer Drug Screen. Data for tumor model L1210 Leukemia (intraperitoneal) in B6D2F1 (BDF1) mice
Details: endpoint: mean survival time, higher = longer survival
Procedure, shortened: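 Value reflects the ratio of survival in compound-treated mice to survival in vehicle-treated controls, with both groups carrying the same transplanted tumor.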

[1] = dose: 25.0 mg/kg/injection, schedule: Q01DX009 (ip), vehicle: Klucel (hydroxypropylcellulose) (HPC)
[2] = dose: 100.0 mg/kg/injection, schedule: Q01DX009 (ip), vehicle: Klucel (hydroxypropylcellulose) (HPC)
[3] = dose: 100.0 mg/kg/injection, schedule: Q04DX003 (ip), vehicle: saline with Tween-80
[4] = dose: 200.0 mg/kg/injection, schedule: Q04DX003 (ip), vehicle: saline with Tween-80
[5] = dose: 400.0 mg/kg/injection, schedule: Q04DX003 (ip), vehicle: saline with Tween-80
[6] = dose: 100.0 mg/kg/injection, schedule: Q04DX003 (ip), vehicle: saline
[7] = dose: 200.0 mg/kg/injection, schedule: Q04DX003 (ip), vehicle: saline
[8] = dose: 400.0 mg/kg/injection, schedule: Q04DX003 (ip), vehicle: saline

Q: What does the source list for CCC[As](=O)(O)CC(C)C?
A: T/C (dose: 6.25 mg/kg/injection, schedule: Q01DX001 (ip), vehicle: saline): 102 % of control; T/C (dose: 6.25 mg/kg/injection, schedule: Q01DX009 (ip), vehicle: saline): 119 % of control; T/C (dose: 12.5 mg/kg/injection, schedule: Q01DX001 (ip), vehicle: saline): 98 % of control; T/C (dose: 12.5 mg/kg/injection, schedule: Q01DX009 (ip), vehicle: saline): 101 % of control and 108 % of control; T/C (dose: 12.5 mg/kg/injection, schedule: Q04DX003 (ip), vehicle: saline): 94 % of control; T/C (dose: 25.0 mg/kg/injection, schedule: Q01DX001 (ip), vehicle: saline): 101 % of control; T/C (dose: 25.0 mg/kg/injection, schedule: Q01DX009 (ip), vehicle: saline): 162 % of control; T/C (dose: 25.0 mg/kg/injection, schedule: Q04DX002 (ip), vehicle: saline): 97 % of control; T/C (dose: 25.0 mg/kg/injection, schedule: Q04DX003 (ip), vehicle: saline): 113 % of control; T/C (dose: 50.0 mg/kg/injection, schedule: Q01DX001 (ip), vehicle: saline): 104 % of control; T/C (dose: 50.0 mg/kg/injection, schedule: Q04DX002 (ip), vehicle: saline): 103 % of control; T/C (dose: 50.0 mg/kg/injection, schedule: Q04DX003 (ip), vehicle: saline): 95 % of control

Q: How did the T/C (dose: 3.0 mg/kg/injection, schedule: Q01DX009 (ip), vehicle: Klucel (hydroxypropylcellulose) (HPC)) turn out when CCOC(=O)c1ccc(NC(=O)Nc2cccc(Cl)c2)cc1 was run?
A: 94 % of control

Q: What about the T/C (dose: 6.0 mg/kg/injection, schedule: Q01DX009 (ip), vehicle: Klucel (hydroxypropylcellulose) (HPC)) of the same molecule?
A: 107 % of control

Q: What about the T/C (dose: 12.0 mg/kg/injection, schedule: Q01DX009 (ip), vehicle: Klucel (hydroxypropylcellulose) (HPC)) of the same molecule?
A: 94 % of control

Q: And the T/C [1]?
A: 101 % of control

Q: What about the T/C [2] of the same molecule?
A: 93 % of control

Q: What does the source list for N#Cc1nc2ccc(Cl)cc2nc1C#N?
A: T/C [1]: 104 % of control; T/C (dose: 50.0 mg/kg/injection, schedule: Q01DX009 (ip), vehicle: Klucel (hydroxypropylcellulose) (HPC)): 105 % of control; T/C [2]: 95 % of control and 102 % of control

Q: How did the T/C [3] turn out when O=C(O)c1cscc1Cc1ccccc1 was run?
A: 90 % of control

Q: And the T/C [4]?
A: 94 % of control

Q: What about the T/C [5] of the same molecule?
A: 95 % of control

Q: For O=C(Nc1ccccc1)C1C2CC3OC(=O)C1C3C2 (configuration not stated), which T/C [6] is on record?
A: 104 % of control and 102 % of control

Q: And the T/C [7]?
A: 95 % of control and 92 % of control

Q: And the T/C [8]?
A: 98 % of control and 104 % of control

Q: What does the source list for [Cl][Gd]([Cl])[Cl]?
A: T/C [6]: 94 % of control; T/C [7]: 115 % of control; T/C [8]: 95 % of control

Q: C=C1CC2(OC1=O)C(=O)N(C)c1ccccc12 (configuration not stated) was tested. Which T/C (dose: 25.0 mg/kg/injection, schedule: Q04DX002 (ip), vehicle: gum acacia) did it give?
A: 101 % of control

Q: And the T/C (dose: 50.0 mg/kg/injection, schedule: Q04DX002 (ip), vehicle: gum acacia)?
A: 97 % of control

Q: How did the T/C (dose: 3.13 mg/kg/injection, schedule: Q01DX009 (ip), vehicle: saline with Tween-80) turn out when O=C(CBr)c1ccc(I)cc1 was run?
A: 92 % of control

Q: And the T/C (dose: 6.25 mg/kg/injection, schedule: Q01DX009 (ip), vehicle: saline with Tween-80)?
A: 95 % of control

Q: What about the T/C (dose: 12.5 mg/kg/injection, schedule: Q01DX009 (ip), vehicle: saline with Tween-80) of the same molecule?
A: 97 % of control

Q: What about the T/C (dose: 25.0 mg/kg/injection, schedule: Q01DX009 (ip), vehicle: saline with Tween-80) of the same molecule?
A: 100 % of control

Q: What about the T/C (dose: 100.0 mg/kg/injection, schedule: Q01DX001 (ip), vehicle: carboxymethylcellulose (CMC)) of the same molecule?
A: 91 % of control

Q: And the T/C (dose: 200.0 mg/kg/injection, schedule: Q01DX001 (ip), vehicle: carboxymethylcellulose (CMC))?
A: 101 % of control

Q: Which T/C (dose: 100.0 mg/kg/injection, schedule: Q01DX009 (ip), vehicle: other) does the source give for C[Si](C)(C)Oc1ccc(O[Si](C)(C)C)cc1 here?
A: 92 % of control

Q: What about the T/C (dose: 200.0 mg/kg/injection, schedule: Q01DX009 (ip), vehicle: other) of the same molecule?
A: 94 % of control

Q: What about the T/C (dose: 400.0 mg/kg/injection, schedule: Q01DX009 (ip), vehicle: other) of the same molecule?
A: 101 % of control

Q: How did the T/C [3] turn out when CC(C)(COCOCC(C)(C)[N+](=O)[O-])[N+](=O)[O-] was run?
A: 100 % of control

Q: What about the T/C [4] of the same molecule?
A: 103 % of control

Q: What about the T/C [5] of the same molecule?
A: 100 % of control

Q: How did the T/C (dose: 100.0 mg/kg/injection, schedule: Q01DX005 (ip), vehicle: saline) turn out when Cc1ccc(S(=O)(=O)OCC2OC(n3ccc(=O)[nH]c3=O)C3OC(C)(C)OC23)cc1 (configuration not stated) was run?
A: 122 % of control

Q: With COC(=O)C(c1ccccc1)C1(O)CCN(Cc2ccccc2)CC1 (configuration not stated) as the molecule, how does the T/C (dose: 75.0 mg/kg/injection, schedule: Q04DX003 (ip), vehicle: Klucel (hydroxypropylcellulose) (HPC)) read?
A: 98 % of control

Q: What about the T/C (dose: 150.0 mg/kg/injection, schedule: Q04DX003 (ip), vehicle: Klucel (hydroxypropylcellulose) (HPC)) of the same molecule?
A: 101 % of control

Q: What about the T/C (dose: 300.0 mg/kg/injection, schedule: Q04DX003 (ip), vehicle: Klucel (hydroxypropylcellulose) (HPC)) of the same molecule?
A: 90 % of control

Q: N#Cc1ccccc1C(=O)O was tested. Which T/C (dose: 100.0 mg/kg/injection, schedule: Q01DX001 (ip), vehicle: saline) did it give?
A: 95 % of control

Q: And the T/C (dose: 200.0 mg/kg/injection, schedule: Q01DX001 (ip), vehicle: saline)?
A: 102 % of control

Q: And the T/C (dose: 400.0 mg/kg/injection, schedule: Q01DX001 (ip), vehicle: saline)?
A: 96 % of control

Q: With O=c1sc(=S)[nH]c2ccccc12 as the molecule, how does the T/C (dose: 100.0 mg/kg/injection, schedule: Q04DX003 (ip), vehicle: Klucel (hydroxypropylcellulose) (HPC)) read?
A: 88 % of control

Q: And the T/C (dose: 200.0 mg/kg/injection, schedule: Q04DX003 (ip), vehicle: Klucel (hydroxypropylcellulose) (HPC))?
A: 93 % of control
